# US10420798B2, “Method for treating lung injury and/or diseases related to lung injury” (TAIWAN MITOCHONDRION APPLIED TECHNOLOGY CO., LTD, priority 2014, dated 2019)
# Tests used:
# [1] = tested on: rat model of acute respiratory distress syndrome; experiment: western blotting / Oxyblot of lung parenchyma protein extracts; type: in vivo
# Source text: (§1) The term “protein oxidation detection kit” disclosed in the present invention refers to methods for detecting protein oxidation in cells. For example, the Oxyblot Oxidized Protein Detection Kit S7150 (Chemicon) used in the examples of the present invention detects oxidized proteins by labeling oxidized proteins in a sample with 2,4-dinitrophenylhydrazine (DNPH), separating proteins in the sample with 12% SDS polyacrylamide gel electrophoresis, transferring the separated proteins onto a transfer membrane, such as a nitrocellulose membrane, immersing the transfer membrane in buffer containing anti-DNP primary antibody (1:150) for about 2 hours, then immersing the transfer membrane in buffer containing secondary antibody (1:300) at room temperature for about an hour, and then observing expression of oxidized proteins in the sample.
# (§2) A total of forty (40) specific pathogen free (SPF) adult male SD rats, each weighing 350-400 g (Charles River Technology, BioLASCO Biotechnology Co., Ltd., Taiwan) were used in the examples. The SD rats were randomly divided into 5 groups: the first group was the normal control group; the second group was the rat model of acute respiratory distress syndrome; the third group was the rat model of acute respiratory distress syndrome intraperitoneally injected with melatonin, with each dose of 50 mg per kilogram, at the 6th and the 24th hour after breathing pure oxygen; the fourth group was the rat model of acute respiratory distress syndrome intravenously injected mitochondria, with a dose of 1500 μg per rat, at the 6th hour after breathing pure oxygen; the fifth group was the rat model of acute respiratory distress syndrome administered melatonin and mitochondria in the same manners, frequency, and doses as those of the third group and the fourth group, respectively.
# The protein extracts of the left lungs of rats in each group were prepared. The same amount (10 to 30 μg) of protein extracts of rats in each group was detected by western blotting and Oxyblot Oxidized Protein Detection Kit S7150, Chemicon, respectively. The results were observed by enhanced chemiluminescence (ECL, Amersham Biosciences), and the performance of each protein was quantified by software (Labwork software, UVP).
# Specifically, the procedure and conditions of western blotting were as follows: Proteins were separated by SDS gel electrophoresis with a gradient of 8-10% polyacrylamide solution. The blocking agent used was a T-TBS solution containing 5% skimmed milk powder and 0.05% Tween. Primary antibodies were against the following proteins respectively: NOX-1 (1:1500, Sigma), NOX-2 (1:750, Sigma), NOX-4 (1:1000, Abcam), or interacted with polyclonal antibodies that were against the following proteins: tumor necrosis factor α (1:1000, Cell Signaling), nuclear factor κB (1:250, Abcam), matrix metalloproteinase 9 (1:3000, Abcam), transforming growth factor β (1:1000, Abcam), Smad3 (1:500, Cell Signaling), bone morphogenetic protein-2 (1:100, Abcam), Smad 1/5 (1:500, Cell Signaling), GR (1:1000, Abcam), GPx (1:1000, Abcam), Cytochrome C (1:2000, BD), NQO 1 (NAD(P)H: quinone oxidoreductase 1; 1:1000, Abcam), Heme oxygenase-1 (1:250, Abcam), caspases 3 (1:1000, Cell Signaling), and PARP (poly (ADP-ribose) polymerase; 1:1000, Cell Signaling). Secondary antibodies conjugated to HRP enzymatic fluorescence are goat antibody against mouse IgG, goat antibody against rat IgG, or goat antibody against rabbit IgG.
# [2] = tested on: rat model of acute respiratory distress syndrome; experiment: albumin in BAL fluid (SDS-PAGE, Coomassie Blue); type: in vivo; conditions: ARDS rats; doses of Example 5
# Experimental: as §2
# (§3) BAL fluid was obtained from rats in each group by bronchoalveolar lavage (BAL). SDS-PAGE and Coomassie Blue staining were used to detect the concentration of albumin in the BAL fluid of each group, and the results are shown in FIG. 11. Furthermore, the number of MPO+, CD40+, and CD11b/c+ cells in the BAL fluid of each group was calculated by flow cytometry.
# [3] = tested on: rat model of acute respiratory distress syndrome; experiment: lung sections: immunofluorescence and transmission electron microscopy of mitochondria; type: in vivo; conditions: compared with second group (ARDS)
# Experimental: as §2
# The left lungs of rats in each group were inflated with constant airway pressure (15-20 mmHg) and embedded with OCT (Tissue-Tek) for immunohistochemical staining. The right lungs of rats in each group were fixed with 4% paraformaldehyde and 0.1% glutaraldehyde phosphate buffer solution, then embedded in paraffin, and stained with hematoxylin and eosin. […]
# [4] = tested on: rat model of acute respiratory distress syndrome; experiment: immunostaining of lung sections for F4/80, γ-H2AX, Cx43, heme oxygenase-1; type: in vivo; conditions: positive cells per HPF 400×; ARDS rats
# Experimental: as §2
# The paraffin sections of the lung tissue of each group were rehydrated with 3% hydrogen peroxide for 30 minutes, followed by the addition of a high-performance Immuno-Block reagent (BioSB) at room temperature for 30 minutes. The sections were then treated with the specific primary antibody of the following proteins, respectively: F4/80 (1:100, Abcam), γ-H2AX (1:500, Abcam), heme oxygenase-1 (HO-1; 1:2000, Abcam), and Cx43. Immunohistochemical staining was performed on the sections of the lung tissue of each group to observe the expression of F4/80, γ-H2AX, heme oxygenase-1, and Cx43 in cells. In addition, the expression of the proteins mentioned above in the lung tissue sections of each group was quantified, and the results are shown in FIG. 20 to FIG. 23. The red fluorescence represents the exogenous mitochondria labeled by mito-tracker, and the green fluorescent represents the mitochondria within the lungs. […]
# [5] = tested on: rat model of acute respiratory distress syndrome; experiment: MPO+, CD40+, CD11b/c+ cells in BAL fluid by flow cytometry; type: in vivo; conditions: ARDS rats; doses of Example 5
# Experimental: as §2, §3
# [6] = tested on: rat model of acute respiratory distress syndrome; experiment: arterial oxygen saturation in rat model of acute respiratory distress syndrome; type: in vivo; conditions: ARDS rats; melatonin 50 mg/kg i.p. at 6th and 24th hour; mitochondria 1500 μg per rat i.v. at 6th hour
# Experimental: as §2
# Rats in each group in Example 5 were anesthetized. Arterial blood was taken from the carotid arteries of rats in each group, and the oxygen saturation of the blood samples was analyzed.
# The rat model of acute respiratory distress syndrome was divided into two groups. One group was given 750 μg of mitochondria per rat, and the other group was given 1500 μg of mitochondria per rat. […]
# [7] = tested on: rat model of acute respiratory distress syndrome; experiment: right ventricular systolic pressure in rat model of acute respiratory distress syndrome; type: in vivo; conditions: ARDS rats; melatonin 50 mg/kg i.p. at 6th and 24th hour; mitochondria 1500 μg per rat i.v. at 6th hour
# Experimental: (§4) A total of forty (40) specific pathogen free (SPF) adult male SD rats, each weighing 350-400 g (Charles River Technology, BioLASCO Biotechnology Co., Ltd., Taiwan) were used in the examples. […]
# Then, rats in each group were provided air with positive pressure ventilation (180 ml per minute) using small animal ventilators (SAR-830/A, CWE, Inc., USA) and intubation. […] Signals of right ventricular systolic pressure were measured with a pressure transducer (UFI, model 1050, CA, USA) and transmitted to bridge amplifiers (ML866 PowerLab 4/30 Data Acquisition Systems. ADlnstruments Pty Ltd., Castle Hill, NSW, Australia) to obtain the right ventricular systolic pressure of rats in each group as a reference for pulmonary hypertension. In addition, femoral artery systolic blood pressure of rats in each group was measured. The right ventricular systolic pressure and the femoral artery systolic blood pressure were analyzed by software (Labchart, ADlnstrument). […]
# [8] = tested on: rat model of acute respiratory distress syndrome; experiment: lung histology (hematoxylin and eosin): alveolar sacs and crowded area; type: in vivo; conditions: per high power field 100×; ARDS rats; doses of Example 5
# Source text: as §4
# The integral of the crowded area in the lung tissue of rats in each group was further calculated by the following criteria: 0 represents no overlap; 1 represents less than 15% of crowded area in each of the high magnification fields; 2 represents 15-25% of crowded area in each of the high magnification fields; 3 represents 25-50% of crowded area in each of the high magnification fields; 4 represents 50-75% of crowded area in each of the high magnification fields; 5 represents 75-100% of crowded area in each of the high magnification fields. […]
# [9] = tested on: human umbilical vein endothelial cells; experiment: intracellular protein oxidation (Oxyblot) under menadione oxidative stress; type: cell-based; conditions: after 0.5 hours and 6 hours of treatment; mitochondria after menadione vs menadione only; menadione vs untreated
# Source text: as §1
# Human umbilical vein endothelial cells were divided into three groups. The human umbilical vein endothelial cells of the first group remained untreated. […] Protein oxidation in each group was detected after 0.5 hours and 6 hours of treatment with a commercially available protein oxidation assay kit (Oxyblot Oxidized Protein Detection Kit S7150, Chemicon), and oxidative stress in cells of each group was further analyzed with a software (Labwork software, UVP).
smiles,measurement,setting,value
COc1ccc2[nH]cc(CCNC(C)=O)c2c1 [melatonin],oxidative stress (oxidized proteins),[1]; Oxyblot,significantly lower than that of the second and fourth groups
same,expression level of GPx,[1]; western blot,significantly higher than those of the second and fourth groups
same,expression level of GR,[1]; western blot,significantly higher than those of the second and fourth groups
same,expression level of Heme oxygenase-1,[1]; western blot,significantly higher than those of the second and fourth groups
same,expression level of NOX-1,[1]; western blot,significantly lower than those of the second and fourth groups
same,expression level of NOX-2,[1]; western blot,significantly lower than those of the second and fourth groups
same,expression level of NOX-4,[1]; western blot,significantly lower than those of the second and fourth groups
same,expression level of NQO 1,[1]; western blot,significantly higher than those of the second and fourth groups
same,expression level of Smad3,[1]; western blot,significantly lower than those of the second and fourth groups
same,expression level of activated PARP,[1]; western blot,significantly lower than those of the second and fourth groups
same,expression level of activated caspase-3,[1]; western blot,significantly lower than those of the second and fourth groups
same,expression level of cytochrome c (cytosol),[1]; western blot,significantly lower than those of the second and fourth groups
same,expression level of matrix metalloproteinase 9,[1]; western blot,significantly lower than those of the second and fourth groups
same,expression level of nuclear factor κB,[1]; western blot,significantly lower than those of the second and fourth groups
same,expression level of transforming growth factor β,[1]; western blot,significantly lower than those of the second and fourth groups
same,expression level of tumor necrosis factor α,[1]; western blot,significantly lower than those of the second and fourth groups
same,albumin concentration in BAL fluid,[2],significantly lower than those in the second group
same,"mitochondrial morphology in lung tissue (size, cristae; TEM)",[3],"smaller, and there are cristae in the mitochondrial inner membranes"
same,expression of F4/80 in lung sections,[4],significantly lower than the fourth group
same,expression of heme oxygenase-1 in lung sections,[4],significantly higher then the second group
same,expression of γ-H2AX in lung sections,[4],significantly lower than the fourth group
same,"number of inflammatory cells (MPO+, CD40+, CD11b/c+) in BAL fluid",[5],significantly lower than those in the second group
same,oxygen saturation (group comparison),[6],significantly higher than that of the fourth group
same,right ventricular systolic pressure (group comparison),[7],significantly reduced
same,number of alveolar sacs,[8],significantly higher than that in the second group
CC1=CC(=O)c2ccccc2C1=O [menadione],protein oxidation in cells,[9],increased significantly
